In PubChem BioAssay AID1963423 (Molecular Pharmacology Branch, DTP, NCI, 2024):

System: 439559-082-T-J2-PDC complex spheroid growth
Experiment: Anticancer human tumor 439559-082-T-J2-PDC patient-derived colon adenocarcinoma cell line growth inhibition [Asc]
Settings: for IC50: curve of first compound; for viability, T/C: stronger effect = lower value; active = viability on the fitted dose curve at most 10% of control; inactive = the rest
Outline: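 Spheroid model: tumor line + HUVEC + hMSC. Single agents and combinations; top conc. at/near clinical Cmax (10 microM if undetermined), half-log dilutions. DMSO stocks at 800-fold test concentration.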

[1] = second compound 0.1 µM, first compound 0.0316 µM
[2] = second compound 0.1 µM, first compound 0.1 µM
[3] = second compound 0.1 µM, first compound 0.316 µM
[4] = second compound 0.1 µM, first compound 1 µM
[5] = second compound 0.316 µM, first compound 0.0316 µM
[6] = second compound 0.316 µM, first compound 0.1 µM
[7] = second compound 0.316 µM, first compound 0.316 µM
[8] = second compound 0.316 µM, first compound 1 µM
[9] = second compound 1 µM, first compound 0.0316 µM
[10] = second compound 1 µM, first compound 0.1 µM
[11] = second compound 1 µM, first compound 0.316 µM
[12] = second compound 1 µM, first compound 1 µM
[13] = second compound 3.16 µM, first compound 0.0316 µM
[14] = second compound 3.16 µM, first compound 0.1 µM
[15] = second compound 3.16 µM, first compound 0.316 µM
[16] = second compound 3.16 µM, first compound 1 µM
[17] = second compound 10 µM, first compound 0.0316 µM
[18] = second compound 10 µM, first compound 0.1 µM
[19] = second compound 10 µM, first compound 0.316 µM
[20] = second compound 10 µM, first compound 1 µM
[21] = second compound 0.1 µM, first compound 0.00316 µM
[22] = second compound 0.1 µM, first compound 0.01 µM
[23] = second compound 0.316 µM, first compound 0.00316 µM
[24] = second compound 0.316 µM, first compound 0.01 µM
[25] = second compound 1 µM, first compound 0.00316 µM
[26] = second compound 1 µM, first compound 0.01 µM
[27] = second compound 3.16 µM, first compound 0.00316 µM
[28] = second compound 3.16 µM, first compound 0.01 µM
[29] = second compound 10 µM, first compound 0.00316 µM
[30] = second compound 10 µM, first compound 0.01 µM
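Note: spheroids exposed to agents for 7 days starting day 3 after seeding.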
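Throughout, for viability, T/C: percent of DMSO vehicle control viability with 100% = vehicle.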

C=CC(=O)N1CCN(c2nc(=O)n(-c3c(C)ccnc3C(C)C)c3nc(-c4c(O)cccc4F)c(F)cc23)C(C)C1 (stereo not given) + Cc1c(S(C)(=O)=O)c(-c2cc(F)cc(N3CCN(c4ccc(NS(=O)(=O)c5ccc(NC(CCN6CCC(C(=O)OCCCP(=O)(O)O)CC6)CSc6ccccc6)c(S(=O)(=O)C(F)(F)F)c5)cc4)CC3)c2)c(-c2ccc(Cl)cc2)n1C(C)C
> 10 µM: IC50 (second compound 0.1 µM) | IC50 (second compound 0.316 µM) | IC50 (second compound 1 µM) | IC50 (second compound 3.16 µM) | IC50 (second compound 10 µM)
inactive: viability, T/C [1] 97.6% | viability, T/C [2] 112% | viability, T/C [3] 99.2% | viability, T/C [4] 97.4% | viability, T/C (second compound 0.1 µM, first compound 3.16 µM) 109% | viability, T/C (second compound 0.1 µM, first compound 10 µM) 99.8% | viability, T/C [5] 93.5% | viability, T/C [6] 107% | viability, T/C [7] 108% | viability, T/C [8] 98.2% | viability, T/C (second compound 0.316 µM, first compound 3.16 µM) 96.6% | viability, T/C (second compound 0.316 µM, first compound 10 µM) 88.3% | viability, T/C [9] 99.1% | viability, T/C [10] 102% | viability, T/C [11] 105% | viability, T/C [12] 88.9% | viability, T/C (second compound 1 µM, first compound 3.16 µM) 89.8% | viability, T/C (second compound 1 µM, first compound 10 µM) 91.6% | viability, T/C [13] 99.1% | viability, T/C [14] 101% | viability, T/C [15] 103% | viability, T/C [16] 89.1% | viability, T/C (second compound 3.16 µM, first compound 3.16 µM) 88.1% | viability, T/C (second compound 3.16 µM, first compound 10 µM) 94.6% | viability, T/C [17] 78% | viability, T/C [18] 80% | viability, T/C [19] 80.5% | viability, T/C [20] 73.8% | viability, T/C (second compound 10 µM, first compound 3.16 µM) 87.6% | viability, T/C (second compound 10 µM, first compound 10 µM) 81.3%

COc1c(OCCCN2CCOCC2)ccc2c3n(c(=NC(=O)c4cnc(N)nc4)nc12)CCN3 + Cc1c(S(C)(=O)=O)c(-c2cc(F)cc(N3CCN(c4ccc(NS(=O)(=O)c5ccc(NC(CCN6CCC(C(=O)OCCCP(=O)(O)O)CC6)CSc6ccccc6)c(S(=O)(=O)C(F)(F)F)c5)cc4)CC3)c2)c(-c2ccc(Cl)cc2)n1C(C)C
0.101 µM: IC50 (second compound 10 µM)
0.312 µM: IC50 (second compound 3.16 µM)
inactive: viability, T/C [21] 97.8% | viability, T/C [22] 98.6% | viability, T/C [1] 85.8% | viability, T/C [2] 63.8% | viability, T/C [3] 67.1% | viability, T/C [4] 55% | viability, T/C [23] 95.9% | viability, T/C [24] 97.9% | viability, T/C [5] 90.8% | viability, T/C [6] 63.4% | viability, T/C [7] 62% | viability, T/C [8] 54.1% | viability, T/C [25] 90.2% | viability, T/C [26] 89.7% | viability, T/C [9] 82.6% | viability, T/C [10] 64.6% | viability, T/C [11] 59% | viability, T/C [12] 49.7% | viability, T/C [27] 85.6% | viability, T/C [28] 84.8% | viability, T/C [13] 79.9% | viability, T/C [14] 59.5% | viability, T/C [15] 50.8% | viability, T/C [16] 48% | viability, T/C [29] 69% | viability, T/C [30] 84.7% | viability, T/C [17] 72% | viability, T/C [18] 50.4% | viability, T/C [19] 36.9% | viability, T/C [20] 37.2%
> 1 µM: IC50 (second compound 0.1 µM) | IC50 (second compound 0.316 µM) | IC50 (second compound 1 µM)

NC(=O)C(=Cn1cnc(-c2cc(C(F)(F)F)cc(C(F)(F)F)c2)n1)c1cncnc1 + Cc1c(S(C)(=O)=O)c(-c2cc(F)cc(N3CCN(c4ccc(NS(=O)(=O)c5ccc(NC(CCN6CCC(C(=O)OCCCP(=O)(O)O)CC6)CSc6ccccc6)c(S(=O)(=O)C(F)(F)F)c5)cc4)CC3)c2)c(-c2ccc(Cl)cc2)n1C(C)C
> 0.3 µM: IC50 (second compound 0.1 µM) | IC50 (second compound 0.316 µM) | IC50 (second compound 1 µM) | IC50 (second compound 3.16 µM) | IC50 (second compound 10 µM)
inactive: viability, T/C (second compound 0.1 µM, first compound 0.000949 µM) 92% | viability, T/C (second compound 0.1 µM, first compound 0.003 µM) 115% | viability, T/C (second compound 0.1 µM, first compound 0.00949 µM) 92.9% | viability, T/C (second compound 0.1 µM, first compound 0.03 µM) 87% | viability, T/C (second compound 0.1 µM, first compound 0.0949 µM) 82.7% | viability, T/C (second compound 0.1 µM, first compound 0.3 µM) 82.5% | viability, T/C (second compound 0.316 µM, first compound 0.000949 µM) 100% | viability, T/C (second compound 0.316 µM, first compound 0.003 µM) 101% | viability, T/C (second compound 0.316 µM, first compound 0.00949 µM) 94.9% | viability, T/C (second compound 0.316 µM, first compound 0.03 µM) 82.8% | viability, T/C (second compound 0.316 µM, first compound 0.0949 µM) 84.2% | viability, T/C (second compound 0.316 µM, first compound 0.3 µM) 75.5% | viability, T/C (second compound 1 µM, first compound 0.000949 µM) 92.8% | viability, T/C (second compound 1 µM, first compound 0.003 µM) 98.2% | viability, T/C (second compound 1 µM, first compound 0.00949 µM) 91.1% | viability, T/C (second compound 1 µM, first compound 0.03 µM) 78% | viability, T/C (second compound 1 µM, first compound 0.0949 µM) 75.7% | viability, T/C (second compound 1 µM, first compound 0.3 µM) 67.4% | viability, T/C (second compound 3.16 µM, first compound 0.000949 µM) 87% | viability, T/C (second compound 3.16 µM, first compound 0.003 µM) 93.8% | viability, T/C (second compound 3.16 µM, first compound 0.00949 µM) 94.7% | viability, T/C (second compound 3.16 µM, first compound 0.03 µM) 75.3% | viability, T/C (second compound 3.16 µM, first compound 0.0949 µM) 69.4% | viability, T/C (second compound 3.16 µM, first compound 0.3 µM) 64.5% | viability, T/C (second compound 10 µM, first compound 0.000949 µM) 76.3% | viability, T/C (second compound 10 µM, first compound 0.003 µM) 73.6% | viability, T/C (second compound 10 µM, first compound 0.00949 µM) 75% | viability, T/C (second compound 10 µM, first compound 0.03 µM) 63.8% | viability, T/C (second compound 10 µM, first compound 0.0949 µM) 54.8% | viability, T/C (second compound 10 µM, first compound 0.3 µM) 56.6%

NC1CCC(NC2CC2c2ccccc2)CC1 (stereo not given) + Cc1c(S(C)(=O)=O)c(-c2cc(F)cc(N3CCN(c4ccc(NS(=O)(=O)c5ccc(NC(CCN6CCC(C(=O)OCCCP(=O)(O)O)CC6)CSc6ccccc6)c(S(=O)(=O)C(F)(F)F)c5)cc4)CC3)c2)c(-c2ccc(Cl)cc2)n1C(C)C
> 0.1 µM: IC50 (second compound 0.1 µM) | IC50 (second compound 0.316 µM) | IC50 (second compound 1 µM) | IC50 (second compound 3.16 µM) | IC50 (second compound 10 µM)
inactive: viability, T/C (second compound 0.1 µM, first compound 0.000316 µM) 101% | viability, T/C (second compound 0.1 µM, first compound 0.001 µM) 115% | viability, T/C [21] 100% | viability, T/C [22] 93.1% | viability, T/C [1] 113% | viability, T/C [2] 102% | viability, T/C (second compound 0.316 µM, first compound 0.000316 µM) 99.4% | viability, T/C (second compound 0.316 µM, first compound 0.001 µM) 114% | viability, T/C [23] 104% | viability, T/C [24] 103% | viability, T/C [5] 105% | viability, T/C [6] 113% | viability, T/C (second compound 1 µM, first compound 0.000316 µM) 96.6% | viability, T/C (second compound 1 µM, first compound 0.001 µM) 107% | viability, T/C [25] 117% | viability, T/C [26] 89.7% | viability, T/C [9] 97.8% | viability, T/C [10] 104% | viability, T/C (second compound 3.16 µM, first compound 0.000316 µM) 95.2% | viability, T/C (second compound 3.16 µM, first compound 0.001 µM) 108% | viability, T/C [27] 109% | viability, T/C [28] 90.8% | viability, T/C [13] 89.9% | viability, T/C [14] 104% | viability, T/C (second compound 10 µM, first compound 0.000316 µM) 88.3% | viability, T/C (second compound 10 µM, first compound 0.001 µM) 96.4% | viability, T/C [29] 87.1% | viability, T/C [30] 88.2% | viability, T/C [17] 85.1% | viability, T/C [18] 86%
